Assay results taken from patent US20090143279A1 (priority 2007, published 2009).
Read-outs that look alike come from different tables or passages of the source.

What was measured:
[1] = test system: mitochondrial membrane potential; type: cell-based, mouse
reactive oxygen species = type: cell-based, mouse
OXPHOS gene expression = type: cell-based, mouse
nuOXPHOS transcripts = type: cell-based, mouse
mtOXPHOS transcripts = type: cell-based, mouse
cytochrome c = type: cell-based, mouse
[2] = test system: cellular dehydrogenase activity
[3] = normalized composite Z-score vs mock-treated (DMSO) wells, Conc 20 μM
[4] = Conc 20 μM, normalized score vs mock-treated (DMSO) wells
[5] = composite Z-score vs mock-treated (DMSO) wells, Conc 20 μM
[6] = composite Z-score vs DMSO, Conc 20 μM

C=C1CC[C@H]2O[C@]2(C)CC[C@@H]2[C@@H]1CC2(C)C [carylophyllene oxide]
ΔΨm [1, 3]: −0.246 | ROS (reactive oxygen species; [3]): 0.636 | GE-HTS (OXPHOS gene expression; [3]): −0.087 | nucOX (nuOXPHOS transcripts; [3]): 0.060 | mitoOX (mtOXPHOS transcripts; [3]): −0.324 | cyt c (cytochrome c; [3]): 0.321 | Viability (C2C12 myotubes; [3]): −0.547 | MTT [2, 3]: −0.713

CC(=O)Oc1cc(OC(C)=O)c2c(c1)O[C@H](c1ccc(OC(C)=O)c(OC(C)=O)c1)[C@@H](OC(C)=O)C2 [catechin pentaacetate]
ΔΨm [1, 3]: −2.799 | ROS (reactive oxygen species; [3]): −1.649 | GE-HTS (OXPHOS gene expression; [3]): 0.269 | nucOX (nuOXPHOS transcripts; [3]): 0.314 | mitoOX (mtOXPHOS transcripts; [3]): 0.161 | cyt c (cytochrome c; [3]): 0.425 | Viability (C2C12 myotubes; [3]): 0.652 | MTT [2, 3]: −1.126

O=C(Oc1cc(OC(=O)c2ccccc2)c2c(c1)O[C@H](c1ccc(OC(=O)c3ccccc3)c(OC(=O)c3ccccc3)c1)[C@@H](OC(=O)c1ccccc1)C2)c1ccccc1 [catechin pentabenzoate]
ΔΨm (composite Z-score) [1, 4]: −1.326 | ROS (composite Z-score) (reactive oxygen species; [4]): 0.599 | GE-HTS (composite Z-score) (OXPHOS gene expression; [4]): −0.898 | nucOX (composite Z-score) (nuOXPHOS transcripts; [4]): −0.815 | mitoOX (composite Z-score) (mtOXPHOS transcripts; [4]): −0.896 | cyt c (composite Z-score) (cytochrome c; [4]): 1.272 | Viability (composite Z-score) (C2C12 myotubes; [4]): −1.434 | MTT (composite Z-score) [2, 4]: −1.672

COc1cc(OC)c2c(c1)O[C@H](c1ccc(OC)c(OC)c1)[C@@H](O)C2 [catechin tetramethylether]
ΔΨm [1, 3]: −0.172 | ROS (reactive oxygen species; [3]): −0.094 | GE-HTS (OXPHOS gene expression; [3]): −1.052 | nucOX (nuOXPHOS transcripts; [3]): −1.106 | mitoOX (mtOXPHOS transcripts; [3]): −0.798 | cyt c (cytochrome c; [3]): 0.586 | Viability (C2C12 myotubes; [3]): 0.435 | MTT [2, 3]: −0.573

COc1cc(O)c(C(=O)c2ccccc2)cc1O [cearoin]
ΔΨm [1, 5]: −1.006 | ROS (reactive oxygen species; [5]): −2.274 | GE-HTS (OXPHOS gene expression; [5]): −1.672 | nucOX (nuOXPHOS transcripts; [5]): −1.568 | mitoOX (mtOXPHOS transcripts; [5]): −1.603 | cyt c (cytochrome c; [5]): −1.478 | Viability (C2C12 myotubes; [5]): −1.078 | MTT [2, 5]: −2.331

CC(=O)O[C@]1(C)CC[C@@]23C[C@@H]1C(C)(C)[C@@H]2CC[C@H]3C [cedryl acetate]
ΔΨm [1, 3]: −0.042 | ROS (reactive oxygen species; [3]): 1.566 | GE-HTS (OXPHOS gene expression; [3]): 0.067 | nucOX (nuOXPHOS transcripts; [3]): 0.184 | mitoOX (mtOXPHOS transcripts; [3]): −0.149 | cyt c (cytochrome c; [3]): 0.388 | Viability (C2C12 myotubes; [3]): −0.311 | MTT [2, 3]: −0.176

N[C@@H](C(=O)N[C@@H]1C(=O)N2C(C(=O)O)=C(Cl)CS[C@H]12)c1ccccc1 [cefaclor]
ΔΨm [1]: −0.759 | ΔΨm [1, 6]: −0.772 | ROS (reactive oxygen species): 0.387 | ROS (reactive oxygen species; [6]): 0.297 | GE-HTS (OXPHOS gene expression): 0.331 | GE-HTS (OXPHOS gene expression; [6]): −0.547 | nucOX (nuOXPHOS transcripts): 0.535 | nucOX (nuOXPHOS transcripts; [6]): −0.506 | mitoOX (mtOXPHOS transcripts): −0.161 | mitoOX (mtOXPHOS transcripts; [6]): −0.435 | cyt c (cytochrome c): −0.764 | cyt c (cytochrome c; [6]): 0.231 | Viability (C2C12 myotubes): 0.762 | Viability (C2C12 myotubes; [6]): −0.091 | MTT [2]: −1.329 | MTT [2, 6]: −0.752

CO/N=C(\C(=O)N[C@@H]1C(=O)N2C(C(=O)OCOC(=O)C(C)(C)C)=C(/C=C\c3scnc3C)CS[C@H]12)c1csc(N)n1 [cefditorin pivoxil]
ΔΨm [1, 6]: 0.245 | ROS (reactive oxygen species; [6]): 0.426 | GE-HTS (OXPHOS gene expression; [6]): 0.238 | nucOX (nuOXPHOS transcripts; [6]): 0.100 | mitoOX (mtOXPHOS transcripts; [6]): 0.440 | cyt c (cytochrome c; [6]): 0.200 | Viability (C2C12 myotubes; [6]): −0.219 | MTT [2, 6]: −0.718

CCN1CCN(C(=O)N[C@@H](C(=O)N[C@@H]2C(=O)N3C(C(=O)O)=C(CSc4nnnn4C)CS[C@H]23)c2ccc(O)cc2)C(=O)C1=O [cefoperazone]
ΔΨm [1, 5]: −0.908 | ROS (reactive oxygen species; [5]): −0.295 | GE-HTS (OXPHOS gene expression; [5]): 0.130 | nucOX (nuOXPHOS transcripts; [5]): 0.013 | mitoOX (mtOXPHOS transcripts; [5]): 0.367 | cyt c (cytochrome c; [5]): 1.001 | Viability (C2C12 myotubes; [5]): 0.097 | MTT [2, 5]: −0.793

CO/N=C(\C(=O)N[C@@H]1C(=O)N2C(C(=O)O)=C(COC(C)=O)CS[C@H]12)c1csc(N)n1 [cefotaxime]
ΔΨm [1, 6]: −0.276 | ROS (reactive oxygen species; [6]): 1.000 | GE-HTS (OXPHOS gene expression; [6]): −0.379 | nucOX (nuOXPHOS transcripts; [6]): −0.450 | mitoOX (mtOXPHOS transcripts; [6]): −0.214 | cyt c (cytochrome c; [6]): 0.366 | Viability (C2C12 myotubes; [6]): −1.283 | MTT [2, 6]: −2.276

CO/N=C(\C(=O)N[C@@H]1C(=O)N2C(C(=O)O)=C(CSc3nc(=O)c(=O)[nH]n3C)CS[C@H]12)c1csc(N)n1 [ceftriaxone]
ΔΨm [1]: −0.461 | ROS (reactive oxygen species): −0.002 | GE-HTS (OXPHOS gene expression): −0.433 | nucOX (nuOXPHOS transcripts): −0.439 | mitoOX (mtOXPHOS transcripts): −0.382 | cyt c (cytochrome c): 0.481 | Viability (C2C12 myotubes): −0.792 | MTT [2]: −1.040
